Source: patent publication US9908884B2, “EGFR inhibitors and methods of treating disorders” (priority 2009, dated 2018)

How the values were obtained:
[1] = Phase I trial; cited from earlier work
[2] = system: H1975 (L858R/T790M) cells; assay: EGFR signaling immunoblot in H1975 cells; type: cell-based; details: 16 hours
Experimental: All cell lines were maintained in RPMI 1640 (Cellgro; Mediatech Inc., Herndon, Calif.) supplemented with 10% FBS 100 units/mL penicillin, 100 […], and 2 mM glutamine.
The supernatant was used for subsequent procedures. […] Antibody binding was detected using an enhanced chemiluminescence system (New England Nuclear Life Science Products Inc.).

T790M EGFR = T790M EGFR (Homo sapiens, UniProt P00533, T790M); assay: Mass spectrometric analysis of T790M EGFR modification; details: MS/MS of peptic peptide 791-798
Description: (A) Intact ESI mass spectra of the free and inhibitor bound. The raw m/z data are shown on the left and the transformed, mass only spectra shown on the right. The measured and theoretical molecular weights of the unmodified as well as modified version of each protein are indicated. In the transformed mass spectra, peaks corresponding to a phosphorylation are indicated. […] All the ions in these mass spectra have been converted to a single charge state.
For intact protein mass spectral analysis, the proteins T790M alone and with small molecules bound were injected onto a POROS 20 R2 protein trap and desalted with 0.05% trifluoroacetic acid (TFA) at a flow rate of 100 μL/min. The proteins were eluted into the mass spectrometer using a linear 15%-75% (v/v) acetonitrile gradient over 4 min at 50 μL/min using a Shimadzu HPLC system (LC-10ADvp). Intact protein analyses were performed on an LCT-Premier instrument (Waters Corp., Milford, Mass., USA) equipped with a standard electrospray source. The capillary voltage was 3.2 kV and the cone voltage of 35 V. Nitrogen was used as desolvation gas. A source temperature of 175° C. and a desolvation temperature of 80° C. were applied. The instrument was calibrated by infusing a solution of 500 fmol/μL myoglobin and the mass accuracy was less than 10 ppm. […]

lung cancer patients = details: all lung cancer patients, not selected for EGFR mutation; cited from earlier work

CCOc1cc2ncc(C#N)c(Nc3ccc(OCc4ccccn4)c(Cl)c3)c2cc1NC(=O)/C=C/CN(C)C [HKI-272]
Cmax [1]: ~200 nM

C=CC(=O)Nc1cccc(Oc2nc(Nc3ccc(N4CCN(C)CC4)cc3)ncc2Cl)c1 [WZ3146, N-(3-(5-chloro-2-(4-(4-methylpiperazin-1-yl)phenylamino)pyrimidin-4-yloxy)phenyl)acrylamide]
inhibition of EGFR, Akt and ERK 1/2 phosphorylation [2]: significantly lower concentrations compared with CL-387,785
site of covalent attachment (T790M EGFR): Cys797 was the site of covalent attachment

C#Cc1cccc(Nc2ncnc3cc(OCCOC)c(OCCOC)cc23)c1 [erlotinib]
median time to tumor progression (lung cancer patients): approximately 2 months

COc1cc2ncnc(Nc3ccc(F)c(Cl)c3)c2cc1OCCCN1CCOCC1 [gefitinib]
median time to tumor progression (lung cancer patients): approximately 2 months
